According to article PMC6044753, “Diclofenac Identified as a Kynurenine 3-Monooxygenase Binder and Inhibitor by Molecular Similarity Techniques” (ACS Omega, 2018):

Target: kynurenine 3-monooxygenase (KMO) (Homo sapiens, UniProt O15229)
Test: microdialysis (rapid equilibrium dialysis) with LC-MS on enriched HEK-KMO lysate; supported by cell lysate enzymatic inhibition, IC50 […]
Assay type: binding

Sequence of kynurenine 3-monooxygenase (KMO) (O15229 whole entry): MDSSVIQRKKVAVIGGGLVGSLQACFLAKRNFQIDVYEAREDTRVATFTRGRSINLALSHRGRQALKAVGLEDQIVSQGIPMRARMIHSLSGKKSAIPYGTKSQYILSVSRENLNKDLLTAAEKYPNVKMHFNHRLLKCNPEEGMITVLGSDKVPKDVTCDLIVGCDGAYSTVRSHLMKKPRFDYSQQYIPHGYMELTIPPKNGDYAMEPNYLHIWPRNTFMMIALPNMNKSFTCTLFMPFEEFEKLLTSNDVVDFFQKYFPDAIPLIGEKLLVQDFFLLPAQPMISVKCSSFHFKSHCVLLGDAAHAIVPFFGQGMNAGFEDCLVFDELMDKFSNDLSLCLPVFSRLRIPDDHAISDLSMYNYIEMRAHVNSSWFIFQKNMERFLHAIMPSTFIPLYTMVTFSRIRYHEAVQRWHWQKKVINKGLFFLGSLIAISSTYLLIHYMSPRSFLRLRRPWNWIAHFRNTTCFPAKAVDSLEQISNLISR

Question: With `O=C(O)Cc1ccccc1Nc1c(Cl)cccc1Cl` [diclofenac] as the molecule, how does the Kd read?
Answer: The Kd was 64.8 ± 29.5 µM.
